Experimental data from patent US9232799B2, “N-[(het)arylethyl)] pyrazole(thio)carboxamides and their heterosubstituted analogues” (BAYER INTELLECTUAL PROPERTY GMBH, priority 2010, dated 2016).

What was measured:
[1] = system: Fusarium graminearum; assay: microbe, parasite or virus in culture; assay type: cell-based; settings: 50 μM
[2] = system: aflatoxines production; assay: microbe, parasite or virus in culture; assay type: cell-based, Aspergillus parasiticus; settings: 50 μM
[3] = system: Alternaria solani; assay: In vivo preventive test on Alternaria solani (tomato); settings: 500 ppm of active ingredient, evaluated 7 days after inoculation
From the text: One day after this treatment, the plants are inoculated with an aqueous spore suspension of Alternaria solani.

[4] = system: Pyrenophora teres; assay: In vivo preventive test on Pyrenophora teres (barley); settings: 500 ppm of active ingredient, evaluated 7-9 days after inoculation
From the text: One day after this treatment, the plants are inoculated with an aqueous spore suspension of Pyrenophora teres.

[5] = logP by HPLC on reversed-phase column (C 18), EEC Directive 79/831 Annex V.A8; assay type: physicochemical
Procedure: In table 1, the logP values were determined in accordance with EEC Directive 79/831 Annex V.A8 by HPLC (High Performance Liquid Chromatography) on a reversed-phase column (C 18), using the method described below: Temperature: 40° C.; […]

Structure (SMILES) | % Inhibition of fungal growth at 50 μM [1] | % Inhibition of Aflatoxin at 50 μM [2] | Efficacy [3] | Efficacy [4] | logP [5]
Cc1cccnc1CC(NC(=O)c1c(C(F)F)nn(C)c1F)C(F)(F)F (stereo not shown) [Example 185] | 87% | 100% | 95% | 94% | 1.52
CC(Cc1ccco1)NC(=O)c1c(C(F)F)nn(C)c1F (stereo not shown) [Example 173] | 83% | 100% | – | – | 2.20
Cn1nc(C(F)F)c(C(=O)NCCc2ccsc2Br)c1F [Example 166] | 97% | 100% | – | – | 2.64
CCN(C(=O)c1c(C(F)F)nn(C)c1F)C(C)C(=O)c1ccccc1 (stereo not shown) [Example 17] | 83% | 100% | 80% | – | 2.59
CC(Cc1ccco1)NC(=O)c1c(C(F)F)nn(C)c1Cl (stereo not shown) [Example 174] | 76% | 89% | – | – | 2.37
COc1ccc(CCN(C)C(=O)c2c(C(F)F)nn(C)c2F)cc1OC [Example 129] | 70% | 90% | – | 90% | 2.04
CN(CC(=O)c1ccc(Cl)cc1)C(=O)c1c(C(F)F)nn(C)c1F [Example 61] | 84% | 100% | 90% | – | 2.53
Cn1nc(C(F)F)c(C(=O)NC2CCCCC2c2ccccc2)c1F (stereo not shown) [Example 212] | 99% | 100% | 89% | – | 3.13
C#CCOc1cc(C(OC)C(C)NC(=O)c2c(C(F)F)nn(C)c2Cl)ccc1OC (stereo not shown) [Example 159] | 77% | 98% | – | – | 2.76
COCCN(CCc1ccncc1)C(=O)c1c(C(F)F)nn(C)c1Cl [Example 202] | 81% | 99% | – | – | 1.69
CC(Cc1c(F)cccc1F)N(C(=O)c1c(C(F)F)nn(C)c1Cl)C1CC1 (stereo not shown) [Example 27] | – | – | 95% | 95% | 3.57
Cn1nc(C(F)F)c(C(=O)NCC(C)(C)c2ccc(Cl)cc2)c1F [Example 63] | – | – | 90% | 94% | 3.37
CC(CN(C)C(=O)c1c(C(F)F)nn(C)c1Cl)c1ccncc1 (stereo not shown) [Example 207] | 37% | 99% | – | – | 1.74
Cn1nc(C(F)F)c(C(=O)NC2CC2c2ccc(F)cc2)c1F (stereo not shown) [Example 220] | 81% | 100% | – | 100% | 2.59
Cc1scc(CCNC(=O)c2c(C(F)F)nn(C)c2Cl)c1C [Example 168] | 97% | 100% | – | – | 3.02
Cn1nc(C(F)F)c(C(=O)NCCc2cccc(Oc3ccccc3)c2)c1F [Example 143] | – | – | 95% | 89% | 3.37
Cn1nc(C(F)F)c(C(=O)NCCc2csc3c2CCCC3)c1F [Example 170] | 95% | 100% | – | – | 3.31
Cn1nc(C(F)F)c(C(=S)NC[Si](C)(C)c2ccccc2Cl)c1F [Example 234] | – | – | 70% | 100% | 4.11
Cn1nc(C(F)F)c(C(=O)NCC(C)(C)c2cccc(Cl)c2)c1F [Example 53] | – | – | 70% | 94% | 3.31
Cn1nc(C(F)F)c(C(=O)NCCc2ccc(Oc3ccccc3)cc2)c1Cl [Example 155] | – | – | 95% | 100% | 3.60
CC(Cc1cccc(Cl)c1)NC(=O)c1c(C(F)F)nn(C)c1Cl (stereo not shown) [Example 48] | – | – | 95% | 100% | 3.17
